This is an account of results in patent EP0026746A1, “Combinatory compositions for use in a method for enhancing the activity of antibiotics, antibiotic preparations having enhanced activity and process for their production” (CIBA-GEIGY AG, priority 1979, dated 1981).

What all share (test): Mouse protection test, i.p. infection, survival ED50
Holding throughout (type): in vivo

Test [1] relates to Salmonella typhimurium 277. The note with it: Salmonella enterica, sc, 240 h, mice, 40 x 10^4 cfu i.p., s.c. immediately and 3 h after infection, results after 10 days. An excerpt:
(§1) Die hohe antibiotische Wirkung des neuen Verfahrens und der neuen Präparate kann durch "in vivo"-Versuche nachgewiesen werden, die an verschiedenen Tierarten, insbesondere an Säugetieren, wie Mäusen, durchgeführt werden. Dazu infiziert man sie mit einer letalen oder sub-letalen Dosis eines pathogenen Microorganismus und gibt dann das genannte neue Präparat bzw. die einzelnen Dosen an Muramylpeptid und Antibiotikum. Die Wirkung wird als ED bestimmt, das ist diejenige Dosis bei denen […] der Tiere überleben.
(§2) Beispiel 4: Man infiziert weisse Laboratoriums-Mäuse auf i.p. Wege mit den in der nachfolgenden Tabelle angeführten pathogenen Mikroorganismen in Salzlösung, so dass 90-100% der nicht behandelten Kontrolltiere innerhalb von 48 Stunden getötet werden. Unmittelbar, sowie 3 Stunden nach der Infektion werden Gruppen zu je 10 Mäusen mit Cefroxadin, sowohl allein (ohne MDP oder nMDP) als auch in Kombination mit N-Acetyl-muramyl-L-alanyl-D-isoglutamin (MDP) bzw. mit N-Acetyldesmethylmuramyl-L-alanyl-D-isoglutamin (nMDP) behandelt, wobei dieselben zweimal in Form wässriger Lösungen oder Suspensionen auf subkutanem Weg verabreicht wurden. Nach 4 bzw. 10 Tagen nach erfolgter Infektion wurden die überlebenden Tiere gezählt. Die meisten dieser Versuche wurden zweifach ausgeführt und die Mittelwerte ermittelt.

The test system of test [2] is Salmonella typhimurium 273. The note with it: Salmonella enterica, sc, 240 h, mice, 400 x 10^4 cfu i.p., s.c. immediately and 3 h after infection, results after 10 days.
Text: as §1, §2

In test [3] the test system is Klebsiella pneumoniae 329. As to conditions: Klebsiella pneumoniae, 329, sc, 96 h, mice, 2 x 10^4 cfu i.p., s.c. immediately and 3 h after infection, survivors after 4 days.
Text: as §1
as §2, with “10 Tagen nach erfolgter Infektion wurden die überlebenden Tiere gezählt.” left out

In test [4] the test system is Klebsiella pneumoniae 327. The note with it: Klebsiella pneumoniae, 327, sc, mice, 60 x 10^4 cfu i.p., s.c. immediately and 3 h after infection, survivors.
Text: as §1
as §2, with “10 Tagen nach erfolgter Infektion wurden die überlebenden Tiere gezählt.” left out

For test [5], the system named is Streptococcus pyogenes 38. As to conditions: Streptococcus pyogenes, 38, sc, 96 h, mice, 0.6 x 10^4 cfu i.p., s.c. immediately and 3 h after infection, survivors after 4 days.
Text: as §1
as §2, with “10 Tagen nach erfolgter Infektion wurden die überlebenden Tiere gezählt.” left out

For another test, the system named is Pasteurella multocida. As to conditions: sc, mice, 0.1 x 10^4 cfu i.p., s.c. immediately and 3 h after infection, survivors.
Text: as §1
as §2, with “10 Tagen nach erfolgter Infektion wurden die überlebenden Tiere gezählt.” left out

Test [6] has as its system Staphylococcus aureus 2999. The note with it: Staphylococcus aureus, 2999, sc, 96 h, mice, 20 000 x 10^4 cfu i.p., s.c. immediately and 3 h after infection, survivors after 4 days.
Text: as §1
as §2, with “10 Tagen nach erfolgter Infektion wurden die überlebenden Tiere gezählt.” left out

Turning to `COC1=C(C(=O)O)N2C(=O)[C@@H](NC(=O)[C@H](N)C3=CCC=CC3)[C@H]2SC1` [Cefroxadin, 7ß-[D-2-amino-2-(1,4-cyclohexadienyl)-acetamido]-3-methoxy-3-cephem-4-carbonsäure], the ED50 came out at 7.6 mg/kg in test [1] (mit 10 mg/kg MDP); 11 mg/kg in test [1] (mit 10 mg/kg nMDP); 22.5 mg/kg in test [1] (ohne MDP oder nMDP); 22.5 mg/kg in test [2] (mit 10 mg/kg MDP); 14 mg/kg in test [2] (mit 10 mg/kg nMDP); 39 mg/kg in test [2] (ohne MDP oder nMDP). The ED50 in test [3] (mit 10 mg/kg MDP) was 4.5 mg/kg; in test [3] (mit 10 mg/kg nMDP), below 2.5 mg/kg; in test [3] (ohne MDP oder nMDP), 14.2 mg/kg; in test [4] (mit 10 mg/kg MDP), below 50 mg/kg; in test [4] (mit 10 mg/kg nMDP) it was below 50 mg/kg; in test [4] (ohne MDP oder nMDP) it was 75 mg/kg. The ED50 was determined as 0.18 mg/kg in test [5] (mit 10 mg/kg MDP); 0.17 mg/kg in test [5] (mit 10 mg/kg nMDP); 0.21 mg/kg in test [5] (ohne MDP oder nMDP); 37 mg/kg in the test with Pasteurella multocida (mit 10 mg/kg MDP); 70 mg/kg in the test on Pasteurella multocida (mit 10 mg/kg nMDP); 109 mg/kg in the test with Pasteurella multocida (ohne MDP oder nMDP). Also, the ED50 in test [6] (mit 10 mg/kg MDP) was found to be 45 mg/kg; in test [6] (mit 10 mg/kg nMDP), 35 mg/kg; in test [6] (ohne MDP oder nMDP), 58 mg/kg.
